Results on one molecule are retold here after patent US9174933B2.

Molecules are shown by their SMILES.

The data set can be described thus: Dynamic Vapor Sorption/Desorption (DVS). The data set is classed as physicochemical. As to conditions: 5% to 95% relative humidity at 10% RH intervals, nitrogen purge. As to the method: Moisture sorption/desorption data were collected on a VTI SGA-100 Vapor Sorption Analyzer. Sorption and desorption data were collected over a range of 5% to 95% relative humidity (RH) at 10% RH intervals under a nitrogen purge. Samples were not dried prior to analysis. Equilibrium criteria used for analysis were less than 0.0100% weight change in 5 minutes, with a maximum equilibration time of 3 hours if the weight criterion was not met. Data were not corrected for the initial moisture content of the samples. Sodium chloride and polyvinypyrrolidine were used as calibration standards.

For `COc1cc(F)c(F)c(Nc2ccc(I)cc2F)c1NS(=O)(=O)C1(C[C@H](O)CO)CC1` [Form A], the “weight change during moisture sorption/desorption” value is “negligible weight change”.
